Tests used:
[1] = tested on: immature female rats; experiment: In vivo ovulation model: FSH-pretreated immature rats, oocytes counted in oviduct after 18 hours; parameters: species or system rat
Source text: The role of FSH in any ovulation induction regimen is for promoting follicular development and maturation, not ovulation induction.
All injections were subcutaneous. Results are expressed as mean plus or minus standard deviations. […] The effects of Compound 1, a known PDE inhibitor are shown.
Data represent average number of oocytes in oviducts of all rats in each group and frequency of ovulating rats. […] Results are expressed as mean plus or minus standard deviations.
Data represent average number of oocytes in oviducts of all rats in each group and frequency of ovulating rats. Results are expressed as mean plus or minus standard deviations.
(§1) Following FSH induced follicular maturation (2.16 IU/rat/injection; bid×2 days) Compound 2 was either injected subcutaneously (subcutis) or administered by oral gavage. Ovulation was determined 18 hours after Compound 2 administration by counting oocytes in oviduct. Data represent average number of oocytes in oviducts of all rats in each group and frequency of ovulating rats. Results are expressed as mean plus or minus standard deviations.
as §1, with “days) […] was either” for “days) Compound 2 was either”

[2] = tested on: immature rats; experiment: Ovulation and fertility in FSH/PMSG pretreated immature rats; type: in vivo, rat; conditions: single subcutaneous injection
Protocol: Follicular maturation was induced in immature rats with FSH (4.33 IU/rat/injection; bid×2 days) and Pregnant Mare's Serum Gonadotropin (PMSG) (1.5 IU/rat/injection; bid×2 days). […] FSH and PMSG induced rats were then treated with either Compound 2 (12 rats) or vehicle (12 rats) by subcutaneous administration. In one cohort of rats (6 rats per treatment), ovulation was determined 18 hours after Compound 2 or vehicle administration by counting oocytes in oviduct. To assess fertility, another cohort of rats (6 rats per treatment) were individually placed overnight in a cage together with a single adult male rat of proven fertility. The next day, male rats were removed and the females were caged together by group until the day of parturition. The number of live full-term pups observed at the time of parturition was recorded. […] Results for both ovulation and live pups are expressed as mean plus or minus standard deviations.

[3] = tested on: rat ovarian granulosa cells; experiment: Rat ovarian granulosa cell cAMP levels, alone or with gonadotropins in vitro (cAMP specific RIA); type: cell-based; conditions: 25 micromolar compound with subeffective (0.1 pM) gonadotropin, 48 hrs
Protocol: Ovaries were removed from immature 25 day old, hypophysectomized, diethylstilbesterol treated Sprague-Dawley rats. The ovaries were repeatedly punctured with 27 gauge needles to liberate granulosa cells from the follicles. Cells were washed and re-suspended in McCoys 5A media+0.1% BSA+2 μM androstenedione. Viable cells in number of 100,000 were loaded into 6-well tissue culture dishes in a 1.0 ml volume (with Compound 1 and Compound 2 at a concentration of 25 micromolar, either alone or in conjunction with a low, 0.1 pM dose of gonadotropin). Plates were incubated in a 37° C. incubator, 100% humidity, 5.0% CO2 for 48 hrs. Conditioned media were assayed in a cAMP specific RIA. Results are expressed as mean plus or minus standard deviations.

[4] = tested on: immature female rats; experiment: Follicle maturation in vivo: sub-optimal FSH with co-administered PDE inhibitor, ovulatory hCG, oocytes counted in oviduct; parameters: species or system rat
Protocol: Mature ovarian follicles generated in immature female rats by treatment with a sub-optimal dose of FSH (1.08 IU/rat/injection; bid×3 days) with and without co-administration of Compound 1 (0.1, 1, 10, and 50 mg/kg/injection: bid×3 days). […] The PDE inhibitors were given in conjunction with sub-optimal doses of FSH. All injections were subcutaneously administered. […] Results are expressed as mean plus or minus standard deviations. […] As also noted in FIG. 3, a PDE inhibitor (Compound 1) inhibited (rather than stimulated) both ovulation administered at 50 mg/kg.

[5] = single subcutaneous injection co-administered with sub-effective dose of hCG
[6] = subcutaneous injection alone, without hCG

SMILES	ovulation (oocytes in oviduct) [1, 5]	ovulation (oocytes in oviduct) [1, 6]	ovulation (oocytes in oviduct) ([2]; 18 hours)	number of live full-term pups at the time of parturition ([2]; mated overnight)	ovulation (oocytes in oviduct) ([1]; oral gavage, without hCG)	cAMP levels in conditioned media [3]	ovulation (oocytes in oviduct, frequency of ovulating rats) ([4]; 50 mg/kg/injection bid x 3 days s.c. with sub-optimal FSH (1.08 IU), ovulatory hCG 20 IU)	ability of a sub-optimal dose of FSH to prepare follicles to ovulate ([4]; increasing doses 0.1, 1, 10, 50 mg/kg/injection bid x 3 days s.c. with sub-optimal FSH)
Clc1nc2c(N3CCCC3)nc(N3CCNCC3)nc2nc1NCc1ccccc1 [Compound 4, 7-Benzylamino-6-chloro-2-piperazino-4-pyrrolidinopteridine]	induction of ovulation	little or no ovulation	–	–	–	–	–	–
COc1ccc(C(=O)Nc2c(Cl)cncc2Cl)cc1OC1CCCC1 [Compound 2, 3-(Cyclopentyloxy)-N-(3,5-dichloropyridin-4-yl)-4-methoxybenzamide]	–	induction of ovulation	induction of ovulation	increased number of live pups	induction of ovulation	significant increase	–	–
COc1ccc([C@]2(C#N)CC[C@@H](C(=O)O)CC2)cc1OC1CCCC1 [Compound 1, Cis-4-cyano-4-(3-(cyclopentyloxy)-4-methoxyphenyl)cyclohexane-1-carboxylic acid]	induction of ovulation	induction of ovulation	–	–	–	significant increase	inhibited	failed to enhance
CCOc1cc2cc(CO)c(CO)c(-c3ccnc(-n4nc(-c5cccnc5)c5ccccc5c4=O)c3)c2cc1OCC.Cl [Compound 3, 2-(4-(6,7-Diethoxy-2,3-bis(hydroxymethyl)naphthalen-1-yl)pyridin-2-yl)-4-(3-pyridyl) pthalazin-1 (2H)-one hydrochloride]	–	induction of ovulation	–	–	induction of ovulation	–	–	–
